The source of these data is patent publication US7449478B2, “Indole compounds” (National Health Research Institutes, priority 2003, dated 2008).

This test concerns PPAR. The test can be described thus: PPAR agonist activity / binding to PPAR, tetraethylthiuram disulfide alone or combined. The following applies: tetraethylthiuram disulfide alone.

Turning to `CCN(CC)C(=S)SSC(=S)N(CC)CC` [tetraethylthiuram disulfide], the PPAR agonist activity entry is recorded as “poor PPAR agonist”.
